“Also recorded” adds a separate entry of the source.
Assays:
chick jejunal CaSR = test: phospho-ERK immunoblot of HEK cells transfected with chick jejunal CaSR cDNA after increase in extracellular Ca2+; format: cell-based, chicken; conditions: extracellular Ca2+ increased 0.5 mM to 10 mM
Method: HEK-293 cells were plated into 6-well plates so that the cells were 90% confluent at the time of transfection. The linearized and non-linearized plasmids were ethanol precipitated and quantified spectrophotometrically. A ratio of DNA to lipofectamine of 1:3.5 (4 μg of DNA and 14 μl Lipofectamine 2000) was used for the transfection procedure. To provide a negative control, only Lipofectamine was added to some HEK cells. After exposure to lipofectamine, hygromycin B (400 μg/ml) was used to select for HEK cells that had been transfected since the plasmid containing the putative CaSR sequence also contained a hygromycin resistance element.
At the start of hygromycin selection, flasks were about 40% confluent. All flasks experienced a high percentage of die off cells. After an interval of 10 days, all the cells in the negative control flasks were dead. […] Linear flask 1 and non-linear flask 1 were trypsinized by addition of 200 μl trypsin to redistribute dense colonies and prevent overcrowding 10 days after the start of hygromycin selection. New complete media was added containing 400 μg/ml hygromycin. At day 14, flasks had multiple colonies that were well spread out and were beginning to look overcrowded. Each flask was trypsinized, centrifuged and re-plated in a new flask, still under hygromycin selection. At day 17, transfected HEK cells were 60% confluent. […]

mammalian CaSR = target: T1, mammalian CaSR (Homo sapiens, UniProt P41180); test: FURA2 ratio imaging fluorimetry of HEK cells stably expressing mammalian CaSR; format: cell-based
T1 construct: expressed in transfected cells; host or cells: HEK cells stably expressing the mammalian CaSR
T1 sequence (P41180 20-1078): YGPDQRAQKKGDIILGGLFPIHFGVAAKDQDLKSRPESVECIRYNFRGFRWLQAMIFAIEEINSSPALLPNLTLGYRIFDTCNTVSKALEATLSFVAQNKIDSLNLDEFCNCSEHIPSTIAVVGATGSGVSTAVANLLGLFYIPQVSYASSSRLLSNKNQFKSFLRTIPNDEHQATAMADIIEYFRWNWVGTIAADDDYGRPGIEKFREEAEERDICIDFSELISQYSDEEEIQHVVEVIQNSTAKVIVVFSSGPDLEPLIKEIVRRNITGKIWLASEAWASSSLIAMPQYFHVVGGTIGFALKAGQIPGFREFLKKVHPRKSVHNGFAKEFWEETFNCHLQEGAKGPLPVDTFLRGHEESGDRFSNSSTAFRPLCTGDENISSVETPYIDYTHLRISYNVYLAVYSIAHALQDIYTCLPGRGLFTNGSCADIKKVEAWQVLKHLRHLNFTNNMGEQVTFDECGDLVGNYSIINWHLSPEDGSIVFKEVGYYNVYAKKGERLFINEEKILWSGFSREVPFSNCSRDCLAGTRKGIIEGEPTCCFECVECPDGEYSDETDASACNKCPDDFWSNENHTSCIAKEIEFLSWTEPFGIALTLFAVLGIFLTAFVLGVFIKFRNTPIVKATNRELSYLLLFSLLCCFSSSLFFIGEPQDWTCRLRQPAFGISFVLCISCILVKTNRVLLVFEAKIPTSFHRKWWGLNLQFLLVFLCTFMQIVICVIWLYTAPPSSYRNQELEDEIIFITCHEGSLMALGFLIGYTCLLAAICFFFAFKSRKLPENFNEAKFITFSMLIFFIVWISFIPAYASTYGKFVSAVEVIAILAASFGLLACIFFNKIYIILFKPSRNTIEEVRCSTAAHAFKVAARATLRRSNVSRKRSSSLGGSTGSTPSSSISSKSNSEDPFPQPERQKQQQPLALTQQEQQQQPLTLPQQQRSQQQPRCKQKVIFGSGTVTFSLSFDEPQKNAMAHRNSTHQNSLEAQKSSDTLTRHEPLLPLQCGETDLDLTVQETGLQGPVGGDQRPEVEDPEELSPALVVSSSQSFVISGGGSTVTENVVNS
From the text: (§1) All methods and equipment utilized to perform experiments on HEK cells have been reported previously (Gama, L. and Breitwieser, G. E. 1998. A carboxyl-terminal domain controls the cooperativity for extracellular Ca2+ activation of the human calcium sensing receptor. A study with receptor-green fluorescent protein fusions. J. Biol. Chem. 273, 29712-29718; Bai, M., Quinn, S., Trivedi, S., Kifor, 0., Pearce, S. H., Pollak, M. R., Krapcho, K., Hebert, S. C. and Brown, E. M. 1996. Expression and characterization of inactivating and activating mutations in the human Ca2+o-sensing receptor. J. Biol. Chem. 271, 19537-19544). Untransfected HEK cells or, alternatively, cells transfected and expressing CaSR protein were cultured in Dulbecco's Modified Eagle Medium containing 10% fetal bovine serum and 1% penicillin-streptomycin in 75 cm^2 flasks until they reached confluence. Media was removed from the flasks and cells were loaded by exposure to Loading Buffer (125 mM NaCl, 4 mM KCl, 1.0 mMCaCl2, 1.0 mM MgCl2, 1 mM NaH2PO4, 20 mM HEPES, 1 gm/liter bovine serum albumin, and 1 gm/l glucose, pH ˜7.4, osmolality ˜285) containing 4.1 micromolar FURA2-AM (Molecular Probes Inc. Eugene, Oreg.) for 2 hr. Cells were then scraped from the surface of the flask using a standard cell scraper (Costar 3010, Corning Inc.). Cells were then pelleted from the suspension by low speed centrifugation to remove loading buffer and rinsed twice to remove extracellular FURA2 dye by two sequential suspensions and pelleting steps using low speed centrifugation. Immediately prior to the start of the experiment, cells were resuspended in various experimental buffers for analyses as described below. The Standard Experimental Buffer used for many studies was composed of: 125 mM NaCl, 4 mM KCl, 0.5 mMCaCl2, 0.5 mM MgCl2, 20 mM HEPES, 1 g/l glucose, pH ˜7.4, osmolality ˜285. All other buffers were variations on this basic composition where specific components within the Standard Experimental Buffer were varied while the remaining components were held constant.
(§2) Cell suspensions consisting of a total volume of 3 ml were analyzed in a PTI fluorimeter (PTI Model 814 Photomultiplier Detection System equipped with SC-500 Shutter Controller and PTI Driver and Analysis Software) within approximately 20 min after exposure to experimental buffers. Data was acquired using standard ratio image analysis as described previously using a data acquisition rate of 1.3 sec. for 500 or 1000 second intervals.
(§3) In selected experiments, the detergent Triton X-100 was added in order to lyse the cells and quantify differences in FURA2 ratio fluorescence. Triton X-100 was added to the cells to obtain a maximal fluorescence signal from the FURA2 for purposes of quantification.
Experiments on HEK cells were performed generally as described in Example 6 herein. […] Subsequent addition of Ca2+ to a final concentration of 5 mM produced an additional response (see FIG. 26A). No response was observed upon addition of 0.025% Mintrex Zn after the addition of experimental buffer (EB) (see FIG. 26B). […] In addition, the magnitude of the CaSR response to 5 mM Ca2+ was diminished by previous addition of Mintrex Zn.
For mammalian CaSR experiments, two individual aliquots from a single pool of HEK cells that stably express the recombinant mammalian CaSR protein were used for ratio imaging fluorimetry assays of CaSR activation generally as described in Example 6 herein. Addition of Ca++ to a final concentration of 2.5 mM produced a CaSR response that was also followed by responses after subsequent additions of 0.025% Zn proteinate followed by Ca++ to a final concentration of 7.5 mM (FIG. 29B). […] There was also a response to a subsequent dose of Ca++ to a final concentration of 7.5 mM (FIG. 29B). In both tracings, the detergent Triton X-100 was added as a final step to lyse the cells.
Experiments on HEK cells were performed generally as described in Example 6 herein. […]

avian CaSR = test: FURA2 ratio imaging fluorimetry of HEK cells stably expressing avian (chicken) CaSR; format: cell-based
From the text: as §1, §2, §3
The ability of the CaSR modulator MC0100 to potentiate the response of avian and mammalian CaSRs to the chelated mineral amino acid complex, ZnPro, was tested. For avian CaSR experiments, three individual aliquots from a single pool of HEK cells that stably express the recombinant avian CaSR protein were used for ratio imaging fluorimetry assays of CaSR activation generally as described in Example 6 herein. […] In all aliquots, the detergent Triton X-100 was added as the last addition to lyse the cells (FIG. 29A).
From a single pool of HEK cells stably expressing the avian CaSR, aliquots of cells were removed and analyzed using ratio imaging fluorimetry generally as described in Example 6 herein. After a standard addition of Ca++ to a final concentration of 2.5 mM, either 0.0025%, 0.025% or 0.25% Zinc Proteinate was added followed by a second addition of Ca++ to a final concentration of 7.5 mM. Subsequently, an aliquot of the detergent Triton X-100 was added to lyse the cells. […] The magnitude of the subsequent CaSR response to Ca++ was reduced via increasing Zn Proteinate stimulation.
Fluorimetry analysis was performed on HEK cells expressing the recombinant chicken CaSR protein generally as described in Example 6 herein.

[1] = target: T2, recombinant human CaSR protein (Homo sapiens, UniProt P41180); test: FURA2 ratio fluorimetry of HEK cells expressing recombinant human CaSR; format: cell-based
T2 construct: expressed in transfected cells; host or cells: HEK cells
T2 sequence (P41180 20-1078): T1 sequence (P41180 20-1078)
From the text: as §1, §2, §3

recombinant CaSR protein = recombinant CaSR protein (Homo sapiens, UniProt P41180); conditions: concentrations of spermine and calcium present in sow's milk (FIG. 20C); cited from earlier work
chicken CaSR = test: CaSR dependent ERK 1/2 phosphorylation (Western blot) in HEK cells transfected with chicken CaSR; format: cell-based; conditions: various concentrations of bacitracin Zn
Method: HEK cells transfected with the chicken CaSR were cultured under standard conditions (DMEM with 10% FCS). Confluent flasks were serum-starved overnight in DMEM supplemented with 0.2% BSA and pre-incubated for 60 min at 37° C. in the following medium: 125 mM NaCl, 4 mM KCl, 20 mM Hepes, 0.1% glucose, 0.8 mM NaH2PO4, 1 mM MgCl2, 0.1% BSA, 0.5 mM CaCl2, pH 7.45. The cells were then incubated in the same medium without BSA in the presence of different mineral chelates at different concentrations (see below) for 15 min at 37° C. At the end of the incubation treatment media was removed and cells were washed with PBS and than lysed in 250 microliter of M-PER lysis buffer (Pierce Chemical Company, Rockford, Ill.) containing 10 ul/ml of protease inhibitors (Pierce Chemical Company, Rockford, Ill.). Cell lysates were centrifuged for 10 min at 4° C. at 14,000×g. The protein content in the supernatants was analyzed using the BCA Protein Assay system from Pierce Chemical Company, Rockford, Ill. Equal amounts of protein (20 ug) were combined with 4× loading buffer and […] DTT, heated to 95° C., separated by SDS gel electrophoresis and electrotransferred to PVD membranes. The membranes were incubated in 1% BSA in TBS-T (TRIS-buffered saline containing Tween 20 at 0.1%) overnight. After 4 washes in TBS-T the membranes were incubated with primary antibody (anti phosphoERK at 1:400 dilution; this antibody recognizes the phosphorylated form of ERK 1/2) for 1.5 hours at room temperatures, washed 4 times and incubated with secondary antibody (anti mouse at 1:50,000 dilution). After 4 washes in TBS-T the membranes were developed using the ECL Western Blotting system.
The experiments described in FIGS. 34 A and B used the following metal chelate treatments: ZnProteinate, CuProteinate and MnProteinate (Balchem Corporation, New Hampton, N.Y.) at the following concentrations: 0.025% and 2.5%, or at a concentration of 0.025% with 1 micromolar MC 0100 (a calcimimetic); or various concentrations of bacitracin Zn.

Sequence of chicken CaSR (as listed by the source): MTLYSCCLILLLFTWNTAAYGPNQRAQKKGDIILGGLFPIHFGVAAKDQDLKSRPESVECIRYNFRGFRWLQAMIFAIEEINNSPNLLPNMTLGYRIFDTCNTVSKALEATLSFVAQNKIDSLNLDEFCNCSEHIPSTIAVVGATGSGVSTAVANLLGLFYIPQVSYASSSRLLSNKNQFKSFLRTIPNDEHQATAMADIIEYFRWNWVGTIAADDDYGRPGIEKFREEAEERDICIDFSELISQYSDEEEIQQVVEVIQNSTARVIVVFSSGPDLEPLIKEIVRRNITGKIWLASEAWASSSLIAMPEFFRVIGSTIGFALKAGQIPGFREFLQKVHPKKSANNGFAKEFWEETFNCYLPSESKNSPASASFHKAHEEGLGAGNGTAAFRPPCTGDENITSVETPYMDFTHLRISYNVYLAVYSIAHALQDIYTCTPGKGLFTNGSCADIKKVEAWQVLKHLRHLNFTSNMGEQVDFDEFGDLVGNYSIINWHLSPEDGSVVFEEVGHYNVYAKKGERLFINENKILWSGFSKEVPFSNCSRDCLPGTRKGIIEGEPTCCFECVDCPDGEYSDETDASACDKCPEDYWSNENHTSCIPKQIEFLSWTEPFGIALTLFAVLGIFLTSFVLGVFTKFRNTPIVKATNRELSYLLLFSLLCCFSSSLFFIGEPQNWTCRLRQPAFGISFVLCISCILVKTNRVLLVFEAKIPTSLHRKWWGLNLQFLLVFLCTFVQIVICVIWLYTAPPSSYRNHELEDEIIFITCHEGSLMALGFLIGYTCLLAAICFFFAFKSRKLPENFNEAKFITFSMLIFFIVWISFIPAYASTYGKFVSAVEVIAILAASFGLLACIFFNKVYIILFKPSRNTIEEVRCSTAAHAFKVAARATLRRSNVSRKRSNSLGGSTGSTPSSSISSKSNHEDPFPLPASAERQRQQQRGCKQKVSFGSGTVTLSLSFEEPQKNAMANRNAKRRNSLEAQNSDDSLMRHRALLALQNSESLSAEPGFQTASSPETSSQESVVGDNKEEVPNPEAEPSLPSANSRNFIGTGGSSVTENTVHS

Q: For `[Ca+2]` [Ca2+], which “activation of the ERK kinase pathway (phospho-ERK)” value (chick jejunal CaSR) is on record?
A: Its value is “selective activation”.

Q: With `N[C@@H](Cc1ccccc1)C(=O)O` [L-Phenylalanine] as the compound, how does the “effect on Mintrex Zn inhibition of CaSR response to Ca++ stimulus” value (mammalian CaSR; 3 mM L-Phe after 0.025% Mintrex Zn, 1.5 mM Ca++, Ca++ to 5 mM) read?
A: Its value is “reversed Mintrex-Zn's inhibition”.

Q: What about the “effect on Mintrex Zn inhibition of CaSR response to Ca++ stimulus” value (avian CaSR; 3 mM L-Phe after 0.25% Mintrex Zn, Ca++ to 7.5 mM) of the same compound?
A: Its value is “reversed Mintrex-Zn's inhibition”.

Q: Which “effect on CaSR response to 2.5 mM Ca2+” value (mammalian CaSR; 1 micromolar MC106 added first) does the source give for `CC(C)(Cc1ccc2ccccc2c1)NC[C@@H](O)COc1cccc(Cl)c1C#N` [MC106] here?
A: Its value is “eliminated”.

Q: And the “effect on subsequent CaSR response to 5 mM Ca2+” value (mammalian CaSR; 1 micromolar MC106 added first)?
A: Its value is “reduced”.

Q: And the “CaSR response to the modulator itself” value (mammalian CaSR; 1 micromolar MC106 in DMSO)?
A: Its value is “did not itself produce a CaSR response; also recorded: did not elicit a CaSR response”.

Q: And the “effect on CaSR responses to 0.25% Mintrex Zn or 5.5 mM Ca2+” value (mammalian CaSR; initial addition of 1 micromolar MC106)?
A: The value was “reduced or eliminated responses”.

Q: What about the “effect of modulator on CaSR stimulation by Mintrex Zn” value (mammalian CaSR; pre-addition of MC106 (FIG. 30D)) of the same compound?
A: The value was “suppress the stimulation”.

Q: What about the “effect of prior modulator on CaSR response to Zn Proteinate” value (avian CaSR; 1 micromolar MC106, 0.25% Zinc Proteinate) of the same compound?
A: Its value is “reduced the avian CaSR's response”.

Q: For `NCCCN` [diaminopropane], which “activation of recombinant human CaSR (intracellular calcium)” value (“activation … (intracellular calcium)” for short) [1] is on record?
A: The value was “sharp increase in intracellular calcium”.

Q: For `N=C(N)NCCC[C@H](N)C(=O)O.NCC(=O)O.NCC(=O)O` [gly-gly-arg, glycine-glycine-arginine], which “activation … (intracellular calcium)” value [1] is on record?
A: The value was “significant activation”.

Q: Which “activation of recombinant CaSR” value (recombinant CaSR protein) does the source give for `NCCCNCCCCNCCCN` [spermine] here?
A: Its value is “activated”.

Q: Which “activation … (intracellular calcium)” value [1] does the source give for Casein here?
A: The value was “acts as an agonist”.

Q: Which “ERK1/2 phosphorylation as compared to Ca++ with MC0100” value (chicken CaSR) does the source give for bacitracin Zn here?
A: Its value is “increase in ERK1/2 phosphorylation”.

Q: Which “activation … (intracellular calcium)” value [1] does the source give for “bovine serum albumin: a protein that also binds calcium” here?
A: The value was “has no effect”.

From patent US9351998B2, “Methods of nourishing animals” (MariCal, Inc., priority 2008, dated 2016)
